What was measured:
[1] = target: T1, dog GST P1-1 (Canis lupus familiaris, UniProt A0A8I3QRM6); format: biochemical; details: compound as substrate with GSH; 30 °C; substrate-specific concentrations and pH
Experimental: The purified dog GST P1-1 enzyme was assayed spectrophotometrically with various substrates representing different types of chemical reactions, including substitution, reduction, addition, and isomerization.
Activity measurements with alternative substrates were performed spectrophotometrically on a Shimadzu (UV-250 1 PC) instrument. All measurements were conducted at 30 °C and in a 1 mL quartz cuvette, except for the alkenals, which were measured in a 0.5 mL quartz cuvette with a 5 mm light path. The conditions used with the final concentrations in the cuvette were as follows. CDNB: (Δε340 nm = 9600 cm^−1 M^−1), 1 mM GSH, 1 mM CDNB (dissolved in ethanol), measured at pH 6.5 in buffer A (0.1 M NaH2PO4/Na2HPO4 with 1 mM EDTA); CuOOH: (Δε340 nm = −6200 cm^−1 M^−1), 1 mM GSH, 1.5 mM CuOOH (dissolved in acetonitrile), 0.1 mM NADPH, 0.3 units glutathione reductase, measured at pH 7.0 in buffer A; Alkenals: (Δε225 nm = −19,200 cm^−1 M^−1), 0.5 mM GSH, 0.1 mM alkenals (dissolved in acetonitrile), measured at pH 6.5 in buffer A; EA: (Δε270 nm = 5000 cm^−1 M^−1), 0.25 mM GSH, 0.2 mM EA (dissolved in acetonitrile), measured at pH 6.5 in buffer A; AD: (Δε248 nm = 16,300 cm^−1 M^−1), 1 mM GSH, 0.1 mM AD (dissolved in methanol), measured at pH 8.0 in 0.025 M NaH2PO4/Na2HPO4 with 1 mM EDTA; PEITC: (Δε274 nm = 8890 cm^−1 M^−1), BITC: (Δε274 nm = 9250 cm^−1 M^−1), AITC: (Δε274 nm = 7450 cm^−1 M^−1), PITC: (Δε274 nm = 8350 cm^−1 M^−1), cHITC (Δε274 nm = 8520 cm^−1 M^−1), 1 mM GSH, 0.4 mM ITC (dissolved in acetonitrile), measured at pH 6.5 in buffer A.

[2] = target: Cys48 (UniProt position 48, SLKASCLYGQL); details: cited from earlier work
[3] = tested on: Human GST P1-1/Ile105; set-up: method as in PMID 9600848; details: compound as substrate; cited from earlier work
[4] = target: T1, dog GST P1-1; experiment: biochemical; format: biochemical; details: for IC50: 1 mM GSH and 0.4 mM benzyl isothiocyanate as substrates, standard assay conditions
[5] = target: T1, dog GST P1-1; experiment: Activation of the prodrug Telcyta by GST P1-1, TLC assay with ninhydrin staining; format: biochemical; details: 3 mM Telcyta, 0.25 mg/mL enzyme, pH 7.5, 37 °C, nonenzymatic background subtracted
Experimental: The prodrug Telcyta is a substrate for GSTs in a reaction releasing a multifunctional phosphorodiamidate mustard (Figure 5). The prodrug was most effectively activated by human GST P1-1 from the enzymes examined. Telcyta was tested with the dog GST P1-1 for comparison. We developed a chromatographic method to assay the reaction. Aliquots of the reaction mixture were analyzed by thin-layer chromatography (TLC), and the ninhydrin-reactive product as well as the substrate were quantified at different time points (Figure 6). Conditions were chosen to ascertain a linear response of ninhydrin staining with increasing analyte concentration. The enzymatic activity was obtained by subtracting the nonenzymatic background reaction.
Telcyta is a tripeptide derivative, which releases an alkylating agent by the action of GSTs and is converted to another tripeptide. Both substrate and product peptides are reactive with ninhydrin and the reaction can be monitored by sampling of the reaction mixture at consecutive time points. […] A background reaction was also measured in the absence of enzyme. […]
Six TLC plates (silica coated), one for each time point, were prepared and sampling occurred immediately after addition of Telcyta and every 3.5 min thereafter. The reaction was monitored over a total of 17.5 min. […]
Catalytic activity was estimated both by visual observation and by quantitative ImageJ analysis. […]

T1 sequence (A0A8I3QRM6 1-210): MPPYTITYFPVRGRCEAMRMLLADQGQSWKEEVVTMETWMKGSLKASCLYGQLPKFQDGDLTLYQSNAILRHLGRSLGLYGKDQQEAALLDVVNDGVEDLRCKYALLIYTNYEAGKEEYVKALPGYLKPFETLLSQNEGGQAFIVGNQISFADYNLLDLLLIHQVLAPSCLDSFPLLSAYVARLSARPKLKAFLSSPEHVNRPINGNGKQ

Compound	Specific Activity, Dog GST P1-1 [1] [µmol/min/mg]	Specific Activity, Human GST P1-1/Ile105 [3] [µmol/min/mg]	other results
CCCCCC/C=C/C=O [trans-2-Nonenal]	0.124 ± 0.005		
Glutathione transferase P1-1 (GST P1-1, class Pi) (Homo sapiens)			pKa [2]: 4.2
CCCN=C=S [Propyl isothiocyanate]	2.55 ± 0.20	49	
C=C(CC)C(=O)c1ccc(OCC(=O)O)c(Cl)c1Cl [Ethacrynic acid]	2.05 ± 0.13		
S=C=NC1CCCCC1 [Cyclohexyl isothiocyanate]	1.27 ± 0.08	11	
O=[N+]([O-])c1ccc(Cl)c([N+](=O)[O-])c1 [1-Chloro-2,4-dinitrobenzene]	23.0 ± 1.3	106	
CC/C=C/C=O [trans-2-Pentenal]	0.100 ± 0.002		
Nc1c(S(=O)(=O)O)cc(Nc2ccc(Nc3nc(Cl)nc(Nc4ccccc4S(=O)(=O)O)n3)c(S(=O)(=O)O)c2)c2c1C(=O)c1ccccc1C2=O [Cibacron Blue]			IC50 [4]: 0.043 ± 0.007 µM; Shape of inhibition curve (cooperativity) ([4]; benzyl isothiocyanate as substrate): positive cooperativity
S=C=NCc1ccccc1 [Benzyl isothiocyanate]	39.0 ± 5.2	63	
C[C@]12CCC(=O)CC1=CC[C@@H]1[C@@H]2CC[C@]2(C)C(=O)CC[C@@H]12 [Δ^5-androstene-3,17-dione]	0.014 ± 0.005	0.01	
CCCCCCCCC/C=C/C=O [trans-2-Dodecenal]	0.046 ± 0.006		
NC(CCC(=O)NC(CS(=O)(=O)CCOP(=O)(N(CCCl)CCCl)N(CCCl)CCCl)C(=O)NC(C(=O)O)c1ccccc1)C(=O)O [Telcyta, γ-L-Glutamyl-α-amino-β-(2-ethyl-N,N,N′,N′-tetrakis(2-chloroethyl)phosphorodiamidate)sulfonylpropionyl-R(−)phenylglycine]			Fold lower activity per mg of protein of dog GST P1-1 than the human enzyme [5]: 18 fold
S=C=NCCc1ccccc1 [Phenethyl isothiocyanate]	6.37 ± 1.03	60	
C=CCN=C=S [Allyl isothiocyanate]	1.94 ± 0.60	38	
[Cl][Sn]([c]1ccccc1)([c]1ccccc1)[c]1ccccc1 [Triphenyltin chloride]			IC50 [4]: 3.11 ± 0.38 µM
CCCCCCC/C=C/C=O [trans-2-Decenal]	0.111 ± 0.005		
CC(C)(OO)c1ccccc1 [Cumene hydroperoxide]	0.07 ± 0.01	0.03	
